The results in this text go back to patent US7781430B2, “Benzoxazole carboxamides for treating CINV and IBS-D” (Albany Molecular Research, Inc., priority 2005, dated 2010).

One data set addresses T1, 5-HT3 receptors (Mus musculus, UniProt P23979).
T1 construct: a group of 5 male or female CD-1 (Crl.) mice; from tissue
T1 sequence (P23979 24-489): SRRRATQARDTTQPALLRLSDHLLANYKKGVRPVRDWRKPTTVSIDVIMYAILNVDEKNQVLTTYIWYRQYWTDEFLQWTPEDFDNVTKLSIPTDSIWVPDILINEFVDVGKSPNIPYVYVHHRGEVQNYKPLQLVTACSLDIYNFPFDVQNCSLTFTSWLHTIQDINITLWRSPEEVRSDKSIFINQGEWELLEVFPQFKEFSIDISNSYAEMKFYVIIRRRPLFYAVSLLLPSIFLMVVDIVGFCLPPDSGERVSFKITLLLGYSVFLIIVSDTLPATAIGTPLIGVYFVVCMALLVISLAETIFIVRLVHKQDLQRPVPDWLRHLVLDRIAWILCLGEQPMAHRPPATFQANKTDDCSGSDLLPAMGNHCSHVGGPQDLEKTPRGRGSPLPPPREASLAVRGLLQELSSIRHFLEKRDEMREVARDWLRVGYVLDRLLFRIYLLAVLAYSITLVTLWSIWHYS
Briefly: Bezold-Jarisch assay in vivo (inhibition of serotonin induced bradycardia). The following applies: 30 mg/kg orally, CD-1 mice; 5-HT (0.5 mg/kg IV)-induced bradycardia recorded sixty minutes later, pentobarbital-anesthetized. How it is done: Bezold-Jarisch Assay in vivo. […] Arch. Int. Pharmacodyn. 277: 235-252, 1985]. Test substances and vehicle [2% Tween 80] were each administered orally (30 mg/kg) to a group of 5 male or female CD-1 (Crl.) mice each weighing 24±2 g. A dosing volume of 10 mL/kg was used. Sixty minutes later, 5-HT (0.5 mg/kg IV)-induced bradycardia was recorded in pentobarbital (80 mg/kg IP, given 10 minutes before 5-HT)-anesthetized animals.

The compound `CN1CCC(NC(=O)c2cccc3oc(-c4ccccc4)nc23)CC1` yielded a melting point of 126 to 128 °C.
On the same count and under the same terms, for `COc1ccc(-c2nc3cccc(C(=O)NC4CC5CCCC(C4)N5C)c3o2)cc1` (stereo not shown) the value was 160 to 162 °C; for `O=C(NC1CN2CCC1CC2)c1cc(Cl)cc2oc(-c3ccccc3)nc12` (stereo not shown), 180 to 183 °C; for `O=C(NC1CN2CCC1CC2)c1cccc2oc(-c3ccc(F)cc3)nc12` (stereo not shown), 208 to 209 °C.
The same measure, in the same setting: for `CN1C2CCC1CC(NC(=O)c1cccc3oc(-c4ccccc4)nc13)C2` (stereo not shown) the value was 149 to 151 °C; for `COc1ccc(-c2nc3cccc(C(=O)NC4CN5CCC4CC5)c3o2)cc1` (stereo not shown), 166 to 167 °C; for `CN1CCC(NC(=O)c2cccc3nc(-c4ccccc4)oc23)CC1`, 209 to 210 °C.
Still for that read-out and setting: for `O=C(NC1CN2CCC1CC2)c1cccc2nc(-c3ccc(F)cc3)oc12` (stereo not shown) the value was 185 to 187 °C; for `CN1C2CCCC1CC(NC(=O)c1cccc3oc(-c4ccc(Cl)cc4)nc13)C2` (stereo not shown), 185 to 187 °C.
In the case of `CN1C2CCCC1CC(NC(=O)c1cc(Cl)cc3oc(-c4ccccc4)nc13)C2` (stereo not shown), the “% Inhibition in vivo” value at 5-HT3 receptors is 40%.
For `O=C(NC1CCNCC1)c1cccc2oc(-c3ccccc3)nc12`, the melting point lay within 99 to 102 °C.
On the same count and under the same terms, for `COc1ccc(-c2nc3c(C(=O)NC4CC5CCCC(C4)N5C)cccc3o2)cc1` (stereo not shown) the value was 103 to 105 °C; for `CN1CCC(NC(=O)c2cc(Cl)cc3oc(-c4ccccc4)nc23)CC1`, 170 to 172 °C; for `O=C(NC1CN2CCC1CC2)c1cccc2oc(-c3ccc(Cl)cc3)nc12` (stereo not shown), 194 to 196 °C.
Still for that read-out and setting: for `CN1C2CCCC1CC(NC(=O)c1cccc3nc(-c4ccc(F)cc4)oc13)C2` (stereo not shown) the value was 229 to 231 °C.
The same measure, in the same setting: for `O=C(NC1CCNCC1)c1cc(Cl)cc2oc(-c3ccccc3)nc12` the value was 169 to 171 °C.
`O=C(NC1CN2CCC1CC2)c1cccc2nc(-c3ccc(Cl)cc3)oc12` (stereo not shown) returned a melting point of 181 to 183 °C.
The same measure, in the same setting: the value for `CN1C2CCCC1CC(NC(=O)c1cccc3nc(-c4ccc(Cl)cc4)oc13)C2` (stereo not shown) was 193 to 196 °C.
`O=C(NC1CCNCC1)c1cccc2nc(-c3ccccc3)oc12` gave a melting point of 191 to 193 °C.
Still for that read-out and setting: for `Cc1nccn1CCNC(=O)c1cccc2oc(-c3ccccc3)nc12` the value was 125 to 127 °C.
For `O=C(NC1CN2CCC1CC2)c1cccc2oc(-c3ccsc3)nc12` (stereo not shown), on 5-HT3 receptors, the “% Inhibition in vivo” value worked out at 62%.
As for `O=C(NC1CN2CCC1CC2)c1cccc2oc(-c3ccccc3)nc12` (stereo not shown), the melting point fell in the range of 77 to 80 °C.
`CN1C2CCC1CC(NC(=O)c1cccc3nc(-c4ccccc4)oc13)C2` (stereo not shown) yielded a melting point of 164 to 166 °C.
Take `COc1ccccc1-c1nc2c(C(=O)NC3CN4CCC3CC4)cccc2o1` (stereo not shown): the “% Inhibition in vivo” value at 5-HT3 receptors amounted to 88%.
As for `CN1C2CCCC1CC(NC(=O)c1cccc3oc(-c4ccc(F)cc4)nc13)C2` (stereo not shown), the melting point is 197 to 199 °C.
The same measure, in the same setting: the value for `CN1C2CCCC1CC(NC(=O)c1cccc3oc(-c4ccccc4)nc13)C2` (stereo not shown) was 182 to 185 °C; that for `O=C(NC1CN2CCC1CC2)c1cccc2nc(-c3ccccc3)oc12` (stereo not shown) was 179 to 180 °C.
In turn, `O=C(NC1CN2CCC1CC2)c1cc(Cl)cc2nc(-c3ccccc3)oc12` (stereo not shown) yielded a melting point of 283 to 285 °C.
Same read-out and setting: for `Cc1nccn1CCCNC(=O)c1cccc2oc(-c3ccccc3)nc12` the value was 145 to 148 °C; for `COc1ccc(-c2nc3c(C(=O)NC4CN5CCC4CC5)cccc3o2)cc1` (stereo not shown), 108 to 109 °C; for `CN1C2CCCC1CC(NC(=O)c1cc(Cl)cc3nc(-c4ccccc4)oc13)C2` (stereo not shown), 199 to 201 °C.

As a reminder, the melting point is the temperature of the solid-liquid transition. Broadly, the % Inhibition in vivo is the relative decrease from the control value, in per cent. The low end stands for a response near the control, the high end for a response far below the control.
